The values below come from US11566007B2, “Ras inhibitors” (Revolution Medicines, Inc., priority 2019, dated 2023).

The test system of experiment [1] is NCI-H358 cells (K-Ras G12C). Put plainly: Potency assay: pERK in NCI-H358 cells. The format is cell-based, human. Conditions: Homo sapiens, NCI-H358; H358 KRAS G12C; read-out: pERK EC50. Put shortly: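 pERK decrease read by AlphaLISA SureFire p-ERK1/2 or In-Cell Western after 4 h compound exposure at 37 °C, 5% CO2.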
Another experiment has as its target NRAS G12C (Homo sapiens (Human), UniProt P01111+P62937, G12C). As to the kind of experiment: Ras-Raf (BRAF RBD) disruption / FRET / MOA assay, NRAS G12C. It counts as biochemical. Conditions: read-out: IC50* NRAS G12C FRET data. In outline: (§1)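 A 10-point, 3-fold dilution series topping at 30 μM final was incubated 3 h at 25° C with the Ras/cyclophilin A/BRAF RBD mixture.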

For the next experiment, the target named is KRAS G12S (Homo sapiens (Human), UniProt P01116+P62937, G12S). As to the kind of experiment: Ras-Raf (BRAF RBD) disruption / FRET / MOA assay, KRAS G12S. It counts as biochemical. Conditions: Ras-Raf disruption/FRET/MOA assay; class symbols; read-out: KRAS G12S FRET data IC50. Put shortly:
as §1

In a further experiment the target is NRAS Q61K (Homo sapiens (Human), UniProt P01111+P62937, Q61K). Put plainly: Ras-Raf (BRAF RBD) disruption / FRET / MOA assay, NRAS Q61K. The format is biochemical. Conditions: NRAS Q61K; Ras-Raf disruption/FRET/MOA assay; read-out: IC50* NRAS Q61K FRET data. In outline: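 Compounds (30 μM top final, 10-point 3-fold dilutions) incubated 3 h at 25° C with nucleotide-loaded Ras, cyclophilin A and BRAF RBD. Detection with 10 nM anti-His Eu-W1024 and 50 nM anti-GST allophycocyanin over another 1.5 h. Lowered TR-FRET ratio relative to DMSO wells gives IC50.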

SMILES strings stand for the structures.

Chain of KRAS G12S (P01116-2 other isoform, or with tags, fused parts or gaps G12S): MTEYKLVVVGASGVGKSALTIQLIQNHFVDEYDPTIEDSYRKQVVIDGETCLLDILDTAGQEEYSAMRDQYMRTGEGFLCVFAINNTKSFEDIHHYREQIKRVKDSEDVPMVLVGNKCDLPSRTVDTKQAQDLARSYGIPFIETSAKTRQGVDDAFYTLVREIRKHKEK
Chain of KRAS G12S (P62937 whole entry): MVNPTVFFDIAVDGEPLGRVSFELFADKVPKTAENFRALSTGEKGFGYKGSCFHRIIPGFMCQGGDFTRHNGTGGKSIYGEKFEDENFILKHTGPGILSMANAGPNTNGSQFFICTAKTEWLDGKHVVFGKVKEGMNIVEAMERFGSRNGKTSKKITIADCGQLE
Chain of NRAS Q61K (P01111 whole entry Q61K): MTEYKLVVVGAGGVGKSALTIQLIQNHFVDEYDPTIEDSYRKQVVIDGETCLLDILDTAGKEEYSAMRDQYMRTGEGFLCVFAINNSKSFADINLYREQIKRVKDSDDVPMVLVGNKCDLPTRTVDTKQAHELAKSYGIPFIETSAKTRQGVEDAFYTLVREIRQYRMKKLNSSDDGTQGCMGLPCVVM
Chain of NRAS Q61K (P62937 whole entry): as the sequence (P62937 whole entry) above
Chain of NRAS G12C (P01111 whole entry G12C): as the sequence (P01111 whole entry Q61K) above, with G12C, K61Q counted along it
Chain of NRAS G12C (P62937 whole entry): as the sequence (P62937 whole entry) above

In general, EC50 refers to the midpoint of the concentration-response curve. In general, IC50 refers to the point on the concentration scale where inhibition reaches its midpoint. With `C=CC(=O)N1CCN(C(=O)N(C)[C@H](C(=O)N[C@H]2Cc3nc(cs3)-c3ccc4c(c3)c(c(-c3cccnc3[C@H](C)OC)n4CC)CC(C)(C)COC(=O)[C@@H]3CCCN(N3)C2=O)C(C)C)CC12CC2` (atropisomer, axis not shown) [Example A417], in experiment [1], the EC50 was less than 5000 nM. Also, the results for the IC50 at NRAS G12C, on KRAS G12S and at NRAS Q61K were 10 to 100 nM, 100 to 1000 nM and 10 to 100 nM, respectively.
`CCn1c(-c2cccnc2[C@H](C)OC)c2c3cc(ccc31)-c1csc(n1)C[C@H](NC(=O)CCOC1CN(C(=O)C#CC(C)(C)N(C)C)C1)C(=O)N1CCC[C@H](N1)C(=O)OCC(C)(C)C2` (atropisomer, axis not shown) [Example A427, 3-((1-(4-(dimethylamino)-4-methylpent-2-ynoyl)azetidin-3-yl)oxy)-N-((6^3S,4S,Z)-1^1-ethyl-1^2-(2-((S)-1-methoxyethyl)pyridin-3-yl)-10,10-dimethyl-5,7-dioxo-6^1,6^2,6^3,6^4,6^5,6^6-hexahydro-1^1H-8-oxa-2(4,2)-thiazola-1(5,3)-indola-6(1,3)-pyridazinacycloundecaphane-4-yl)propanamide]: the EC50 in experiment [1] was less than 5000 nM. Further, the IC50 at NRAS G12C is less than 10 nM; at KRAS G12S it was 1000 to 10000 nM; on NRAS Q61K, 1000 to 10000 nM.
Take `C=CC(=O)N1CC[C@H](C(=O)N(C)[C@H](C(=O)N[C@H]2Cc3cccc(c3)-c3ccc4c(c3)c(c(-c3cc5c(nc3[C@H](C)OC)CCN(C)C5)n4CC)CC(C)(C)COC(=O)[C@@H]3CCCN(N3)C2=O)C(C)C)C1` (atropisomer, axis not shown) [Example A461]: the EC50 in experiment [1] is less than 5000 nM. Moreover, the IC50 at NRAS G12C lay in the range of 100 to 1000 nM; on KRAS G12S, 1000 to 10000 nM; at NRAS Q61K, 1000 to 10000 nM.
`C=CC(=O)N(C)C1CN(C(=O)N(C)[C@H](C(=O)N[C@H]2Cc3nc(cs3)-c3ccc4c(c3)c(c(-c3cccnc3[C@H](C)OC)n4CC)CC(C)(C)COC(=O)[C@@H]3CCCN(N3)C2=O)C(C)C)C1` (atropisomer, axis not shown) [Example A463]: in experiment [1], the EC50 is less than 5000 nM. Besides, the IC50 on NRAS G12C is 10 to 100 nM; on KRAS G12S, 100 to 1000 nM; at NRAS Q61K, 10 to 100 nM.
On to `C=CC(=O)N1CC[C@H](C(=O)N(C)[C@H](C(=O)N[C@H]2Cc3nc(cs3)-c3ccc4c(c3)c(c(-c3cc5c(nc3[C@H](C)OC)CCN(C)C5)n4CC)CC(C)(C)COC(=O)[C@@H]3CCCN(N3)C2=O)C(C)C)C1` (atropisomer, axis not shown) [Example A472], for which the EC50 in experiment [1] is less than 5000 nM. Also, the IC50 at NRAS G12C was in the range of 100 to 1000 nM; on KRAS G12S, 1000 to 10000 nM; at NRAS Q61K, 1000 to 10000 nM.
On to `C=CC(=O)N1CC[C@H](C(=O)N(C)[C@H](C(=O)N[C@H]2Cc3cc(C)cc(c3)-c3ccc4c(c3)c(c(-c3cccnc3[C@H](C)OC)n4CC)CC(C)(C)COC(=O)[C@@H]3CCCN(N3)C2=O)C(C)C)C1` (atropisomer, axis not shown) [Example A498], for which the EC50 in experiment [1] is less than 5000 nM. Besides, the IC50 at NRAS G12C was in the range of 100 to 1000 nM; on KRAS G12S, 1000 to 10000 nM; on NRAS Q61K, 1000 to 10000 nM.
Consider `C=CC(=O)N1CC[C@H](C(=O)N(C)[C@H](C(=O)N[C@H]2Cc3cccc(c3)-c3ccc4c(c3)c(c(-c3cccnc3[C@H](C)OC)n4CC#CC)CC(C)(C)COC(=O)[C@@H]3CCCN(N3)C2=O)C(C)C)C1` (atropisomer, axis not shown) [Example A531], for which the EC50 in experiment [1] is less than 5000 nM. Further, the IC50 at NRAS G12C was in the range of 100 to 1000 nM; at KRAS G12S, 1000 to 10000 nM; on NRAS Q61K, 1000 to 10000 nM.
In the case of `C=CC(=O)N1CCOC2(C1)CN(C(=O)N(C)[C@H](C(=O)N[C@H]1Cc3cccc(c3)-c3ccc4c(c3)c(c(-c3cccnc3[C@H](C)OC)n4CC(F)(F)F)CC(C)(C)COC(=O)[C@@H]3CCCN(N3)C1=O)C(C)C)C2` (atropisomer, axis not shown) [Example A538], the EC50 in experiment [1] was less than 5000 nM. The IC50 on NRAS G12C lay within 10 to 100 nM; on KRAS G12S, 100 to 1000 nM; on NRAS Q61K, 100 to 1000 nM.
In the case of `CO[C@@H](C)c1ncccc1-c1c2c3cc(ccc3n1CC(F)(F)F)-c1cccc(c1)C[C@H](NC(=O)[C@H](C(C)C)N(C)C(=O)N1CCC3(CC1)CN(C(=O)/C=C/CN(C)C)C3)C(=O)N1CCC[C@H](N1)C(=O)OCC(C)(C)C2` (atropisomer, axis not shown) [Example A555], the EC50 in experiment [1] was less than 5000 nM. The IC50 at NRAS G12C, on KRAS G12S and at NRAS Q61K was 100 to 1000 nM in each case.
Consider `CCn1c(-c2cccnc2[C@H](C)OC)c2c3cc(ccc31)-c1cccc(c1)C[C@H](NC(=O)[C@H](C(C)C)N1CC[C@@]3(CCN(C(=O)C#C[C@H]4COCCN4C4COC4)C3)C1=O)C(=O)N1CCC[C@H](N1)C(=O)OCC(C)(C)C2` (atropisomer, axis not shown) [Example A567], for which, in experiment [1], the EC50 was less than 5000 nM. Moreover, the results for the IC50 at NRAS G12C, on KRAS G12S and on NRAS Q61K were 10 to 100 nM, 1000 to 10000 nM and 1000 to 10000 nM, respectively.
With `C=CC(=O)N1CCO[C@H]2CN(C(=O)N(C)[C@H](C(=O)N[C@H]3Cc4coc(n4)-c4ccc5c(c4)c(c(-c4cccnc4[C@H](C)OC)n5CC(F)(F)F)CC(C)(C)COC(=O)[C@@H]4CCCN(N4)C3=O)C(C)C)C[C@H]21` (atropisomer, axis not shown) [Example A574], the EC50 in experiment [1] was less than 5000 nM. Besides, the IC50 on NRAS G12C was 10 to 100 nM; on KRAS G12S, 1000 to 10000 nM; on NRAS Q61K, 100 to 1000 nM.
The corresponding values for `C=CC(=O)N1C[C@@H](N(C)C(=O)N(C)[C@H](C(=O)N[C@H]2Cc3nc(cs3)-c3ccc4c(c3)c(c(-c3cccnc3[C@H](C)OC)n4CC)CC(C)(C)COC(=O)[C@@H]3CCCN(N3)C2=O)C(C)C)[C@@H](C)C1` (atropisomer, axis not shown) [Example A583] are less than 5000 nM, 100 to 1000 nM, 100 to 1000 nM and 100 to 1000 nM.
The corresponding values for `C=CC(=O)N1C[C@H](C)N(C(=O)N(C)[C@H](C(=O)N[C@H]2Cc3nc(cs3)-c3ccc4c(c3)c(c(-c3cccnc3[C@H](C)OC)n4CC)CC(C)(C)COC(=O)[C@@H]3CCCN(N3)C2=O)C(C)C)CC12CC2` (atropisomer, axis not shown) [Example A586] are less than 5000 nM, 100 to 1000 nM, 100 to 1000 nM and 100 to 1000 nM.
For `C=CC(=O)N1C[C@@H](C)[C@H](N(C)C(=O)N(C)[C@H](C(=O)N[C@H]2Cc3nc(cs3)-c3ccc4c(c3)c(c(-c3cccnc3[C@H](C)OC)n4CC)CC(C)(C)COC(=O)[C@@H]3CCCN(N3)C2=O)C(C)C)C1` (atropisomer, axis not shown) [Example A588], in that order: less than 5000 nM, 100 to 1000 nM, 1000 to 10000 nM and 100 to 1000 nM.
Regarding `C=CC(=O)Nc1cnc(OC[C@H](C(=O)N[C@H]2Cc3cccc(c3)-c3ccc4c(c3)c(c(-c3cccnc3[C@H](C)OC)n4CC)CC(C)(C)COC(=O)[C@@H]3CCCN(N3)C2=O)C(C)C)n1C` (atropisomer, axis not shown) [Example A600], the EC50 in experiment [1] is less than 5000 nM. For the same compound, the figures for the IC50 on NRAS G12C, on KRAS G12S and on NRAS Q61K were less than 10 nM, 1000 to 10000 nM and 1000 to 10000 nM, respectively.
For the compound `C=CC(=O)N1CCOC2(C1)CN(C(=O)N(C)[C@H](C(=O)N[C@H]1Cc3nc(cs3)-c3ccc4c(c3)c(c(-c3cccnc3[C@H](C)OC)n4CC(F)(F)F)CC(C)(C)COC(=O)[C@@H]3CCCN(N3)C1=O)C(C)C)C2` (atropisomer, axis not shown) [Example A604], the EC50 in experiment [1] was less than 5000 nM. In addition, the IC50 at NRAS G12C, at KRAS G12S and on NRAS Q61K was 100 to 1000 nM throughout.
For `C=CC(=O)N1CCOC2(CCN(C(=O)N(C)[C@H](C(=O)N[C@H]3Cc4cc(CF)cc(c4)-c4ccc5c(c4)c(c(-c4cccnc4[C@H](C)OC)n5CC(F)(F)F)CC(C)(C)COC(=O)[C@@H]4CCCN(N4)C3=O)C(C)C)CC2)C1` (atropisomer, axis not shown) [Example A605], in experiment [1], the EC50 is less than 5000 nM. Besides, the IC50 at NRAS G12C, at KRAS G12S and on NRAS Q61K was 100 to 1000 nM in each case.
`C=CC(=O)N1CCOC2(CCN(C(=O)N(C)[C@H](C(=O)N[C@H]3Cc4cccc(c4)-c4ccc5c(c4)c(c(-c4cccnc4[C@H](C)OC)n5CC(F)(F)F)CC(C)(C)COC(=O)[C@@H]4CCCN(N4)C3=O)C(C)C)CC2)C1` (atropisomer, axis not shown) [Example A608]: the EC50 in experiment [1] is less than 5000 nM. In addition, the IC50 at NRAS G12C, at KRAS G12S and on NRAS Q61K was 100 to 1000 nM throughout.
Turning to `C=CC(=O)N1CCC[C@@H]2CN(C(=O)N(C)[C@H](C(=O)N[C@H]3Cc4nc(cs4)-c4ccc5c(c4)c(c(-c4cccnc4[C@H](C)OC)n5CC)CC(C)(C)COC(=O)[C@@H]4CCCN(N4)C3=O)C(C)C)C[C@@H]21` (atropisomer, axis not shown) [Example A619], the EC50 in experiment [1] was less than 5000 nM. Also, the results for the IC50 on NRAS G12C, on KRAS G12S and on NRAS Q61K were 100 to 1000 nM, 1000 to 10000 nM and 100 to 1000 nM, respectively.
